The values that follow come from ChEMBL document CHEMBL1140347, “Peptidyl vinyl ester derivatives: new class of selective inhibitors of proteasome trypsin-like activity” (J Med Chem, 2005).

By IC50 is commonly meant the midpoint of a concentration-inhibition curve. A higher IC50 goes with a need for much substance. As usually defined, the half-life is how long it takes for the measured level to halve.

Data set [1] relates to Proteasome. As to the kind of experiment: Inhibition of chymotrypsin like activity of the proteasome purified from lymphoblastoid cell lines (in vitro). It counts as subcellular.
Data set [2] deals with Proteasome. As to the kind of experiment: Inhibition of post-acidic-like (PGPH) activity of the proteasome purified from lymphoblastoid cell lines (in vitro).
Data set [3] is described as follows: Half-life in human plasma by incubation at […]. It counts as ADME, cell-free.
Data set [4] can be described thus: Half-life in culture medium (RPMI) in the presence of 10% foetal calf serum by incubation at […]. The class given is ADME. The conditions noted are these: cattle, culture medium (RPMI) with 10% foetal calf serum.
In data set [5] the test system is Proteasome. In words: Inhibition of trypsin like activity of the proteasome purified from lymphoblastoid cell lines (in vitro). The class given is subcellular.
The test system of data set [6] is Proteasome. In words: Inhibition of trypsin like activity of the proteasome in colon carcinoma cell lines HCT116. The class given is subcellular.
Data set [7] has as its system Proteasome. As to the kind of experiment: Inhibition of trypsin like activity of the proteasome in colon carcinoma cell lines COO115. It counts as subcellular.

Regarding `CCOC(=O)/C=C/[C@H](CC(C)C)NC(=O)[C@H](CO)NC(=O)[C@@H](NC(=O)C1=CCCN(C(=O)OC(C)(C)C)C1)C(C)C`, the 50% inhibitory concentration (IC50) in the data set with Proteasome [1] was above 10000 nM; in the data set with Proteasome [2] it was above 10000 nM; with Proteasome [5] it was 110 nM. For the same compound, the half-life was 2.57 h in data set [3] and above 6 h in data set [4].
Regarding `CCOC(=O)/C=C/[C@H](CC(C)C)NC(=O)[C@H](CO)NC(=O)[C@@H](NC(=O)OCc1ccccc1)C(C)C`, the IC50 in the data set on Proteasome [1] is above 10000 nM; with Proteasome [2] it was above 10000 nM; in the data set on Proteasome [5], 71 nM. The half-life in data set [3] is 3.97 h; in data set [4] it was above 6 h.
As for `CCOC(=O)/C=C/[C@H](CC(C)C)NC(=O)[C@H](CO)NC(=O)[C@@H](NC(=O)C1=CCCNC1)C(C)C`, the IC50 with Proteasome [1] was 6540 nM; in the data set with Proteasome [2], above 10000 nM; with Proteasome [5] it was 380 nM. In addition, the half-life in data set [3] and in data set [4] was above 6 h in each case.
Take `CCOC(=O)/C=C/[C@H](CC(C)C)NC(=O)[C@H](CC(C)C)NC(=O)[C@H](CC(C)C)NC(=O)OCc1ccccc1`: the IC50 in the data set on Proteasome [1] was 2450 nM; with Proteasome [2] it was above 10000 nM; in the data set with Proteasome [5], 280 nM. Further, the half-life in data set [3] is 4.87 h; in data set [4], above 6 h.
For `CCOC(=O)/C=C/[C@H](CC(C)C)NC(=O)[C@H](CC(C)C)NC(=O)[C@H](CC(C)C)NC(=O)C1=CCCN(C(=O)OC(C)(C)C)C1`, in that order: 4360 nM, above 10000 nM, 190 nM, 3.3 h and above 6 h.
In the case of `CCOC(=O)/C=C/[C@H](CC(C)C)NC(=O)[C@H](CO)NC(=O)[C@@H](NC(=O)c1cccc(O)c1C)C(C)C`, the concentration for half-maximal inhibition (IC50) was above 10000 nM in the data set with Proteasome [1], above 10000 nM in the data set with Proteasome [2], 33 nM in the data set with Proteasome [6] and 33 nM with Proteasome [5]. For the same compound, the half-life in data set [3] and in data set [4] was above 6 h in each case.
As for `CCOC(=O)/C=C/[C@H](CC(C)C)NC(=O)[C@H](CC(C)C)NC(=O)[C@H](CC(C)C)NC(=O)C1=CCCNC1`, the figures for the IC50 with Proteasome [1], with Proteasome [2] and in the data set with Proteasome [5] were 860 nM, above 10000 nM and 210 nM, respectively. In addition, the half-life in data set [3] and in data set [4] was above 6 h throughout.
With `CCOC(=O)/C=C/[C@H](CC(C)C)NC(=O)[C@H](CC(C)C)NC(=O)[C@H](CC(C)C)NC(=O)c1cccc(O)c1C`, the IC50 in the data set on Proteasome [1] was 4210 nM; in the data set with Proteasome [2] it was above 10000 nM; in the data set with Proteasome [7], 41 nM; in the data set on Proteasome [5], 41 nM. The half-life in data set [3] and in data set [4] was above 6 h in each case.
